Experimental data reported in US11446287B2, “Compounds and methods for EP300 or CBP modulation and indications therefor” (Opna Immuno-Oncology SA, priority 2019, dated 2022).

These compounds were tested against T1, Recombinant human BRD4 containing dual bromodomains (BRD4-BD12 (1-477)) (Homo sapiens, UniProt O60885) (assay: BRD4 Alphascreen binding assay).
T1 construct: Recombinant human BRD4 containing dual bromodomains (BRD4-BD12 (1-477)); made in house; host or cells: E. coli BL21-CodonPlus (DE3), modified pET vector
Method in brief: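 AlphaScreen proximity between Ni-chelate-bound BRD4-BD12 (1-477) and streptavidin-captured H4 K5/K8/K12/K16-acetyl peptide measured after 1 h room-temperature compound incubation and 30 min with 7.5 μg/ml beads. Buffer: 50 mM HEPES pH 7.5, 50 mM NaCl, 0.01% BSA, 0.01% Triton X-100; data plate-normalized and four-parameter fit for IC50.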
`Cc1noc(C)c1-c1cnc2c(c1)c(-c1ccc(C(=O)O)cc1OC(F)(F)F)cn2-c1ccsc1` [P-0315, 4-(5-(3,5-dimethylisoxazol-4-yl)-1-(thiophen-3-yl)-1H-pyrrolo[2,3-b]pyridin-3-yl)-3-(trifluoromethoxy)benzoic acid] gave an IC50 of 0.0001 to 1 µM.
Compound `Cc1noc(C)c1-c1cnc2c(-c3cccc(C(=O)O)c3Cl)c(C(F)(F)F)n([C@@H](C)c3ccccn3)c2c1` [P-0247, (S)-2-chloro-3-(6-(3,5-dimethylisoxazol-4-yl)-1-(1-(pyridin-2-yl)ethyl)-2-(trifluoromethyl)-1H-pyrrolo[3,2-b]pyridin-3-yl)benzoic acid] has an IC50 of 8 to 1000 µM.
In the case of `Cc1noc(C)c1-c1cnc2c(c1)c(-c1ccc(C(=O)O)nc1)cn2C(c1ccccn1)C1CCCC1` (stereo not shown) [P-0026, 5-(1-(cyclopentyl(pyridin-2-yl)methyl)-5-(3,5-dimethylisoxazol-4-yl)-1H-pyrrolo[2,3-b]pyridin-3-yl)picolinic acid], the IC50 is reported as 1 to 8 µM.
`Cc1noc(C)c1-c1cnc2c(c1)c(-c1cnn(CC(=O)O)c1)cn2-c1ncccc1C#CC1CC1` [P-0272, 2-(4-(1-(3-(cyclopropylethynyl)pyridin-2-yl)-5-(3,5-dimethylisoxazol-4-yl)-1H-pyrrolo[2,3-b]pyridin-3-yl)-1H-pyrazol-1-yl)acetic acid] showed an IC50 of 8 to 1000 µM.
In the case of `CC(=O)N1CCC(n2cc(-c3ccc(C(=O)O)cc3OC(F)(F)F)c3cc(-c4c(C)noc4C)cnc32)CC1` [P-0291, 4-(1-(1-acetylpiperidin-4-yl)-5-(3,5-dimethylisoxazol-4-yl)-1H-pyrrolo[2,3-b]pyridin-3-yl)-3-(trifluoromethoxy)benzoic acid], the IC50 is reported as 8 to 1000 µM.
In the case of `Cc1noc(C)c1-c1cnc2c(c1)c(-c1ccc(C(=O)O)cc1OC(F)(F)F)cn2-c1ccc(C#N)cc1` [P-0313, 4-(1-(4-cyanophenyl)-5-(3,5-dimethylisoxazol-4-yl)-1H-pyrrolo[2,3-b]pyridin-3-yl)-3-(trifluoromethoxy)benzoic acid], the IC50 is reported as 1 to 8 µM.
`CCOc1cc(C(=O)O)c(F)c(OCC)c1-c1cn(-c2ccc(F)cc2F)c2ncc(-c3c(C)noc3C)cc12` [P-0297, 4-(1-(2,4-difluorophenyl)-5-(3,5-dimethylisoxazol-4-yl)-1H-pyrrolo[2,3-b]pyridin-3-yl)-3,5-diethoxy-2-fluorobenzoic acid] was tested, and the IC50 was 8 to 1000 µM.
`Cc1noc(C)c1-c1cnc2c(c1)c(-c1ccc(C(=O)O)cc1OCC(F)F)cn2-c1ccncc1Cl` [P-0306, 4-(1-(3-chloropyridin-4-yl)-5-(3,5-dimethylisoxazol-4-yl)-1H-pyrrolo[2,3-b]pyridin-3-yl)-3-(2,2-difluoroethoxy)benzoic acid] was tested, and the IC50 was 8 to 1000 µM.
Compound `C=C(C)c1ccccc1-n1cc(-c2ccc(C(=O)O)cc2OC(F)(F)F)c2cc(-c3c(C)noc3C)cnc21` [P-0312, 4-(5-(3,5-dimethylisoxazol-4-yl)-1-(2-(prop-1-en-2-yl)phenyl)-1H-pyrrolo[2,3-b]pyridin-3-yl)-3-(trifluoromethoxy)benzoic acid] has an IC50 of 8 to 1000 µM.
For `CCOc1cc(C(=O)O)cc(OCC)c1-n1cc(-c2cnn(C(F)F)c2)c2ncc(-c3c(C)noc3C)cc21` [P-0261, 4-(3-(1-(difluoromethyl)-1H-pyrazol-4-yl)-6-(3,5-dimethylisoxazol-4-yl)-1H-pyrrolo[3,2-b]pyridin-1-yl)-3,5-diethoxybenzoic acid], the IC50 was 1 to 8 µM.
`Cc1noc(C)c1-c1cnc2c(-c3ccccc3)cn(-c3c(OCC(F)(F)F)cc(C(=O)O)cc3OCC(F)(F)F)c2c1` [P-0298, 4-(6-(3,5-dimethylisoxazol-4-yl)-3-phenyl-1H-pyrrolo[3,2-b]pyridin-1-yl)-3,5-bis(2,2,2-trifluoroethoxy)benzoic acid] was tested, and the IC50 was 1 to 8 µM.
Compound `Cc1noc(C)c1-c1cnc2c(c1)c(-c1ccc(C(=O)O)cc1OC(F)(F)F)cn2-c1cnc(N2CCC2)nc1` [P-0281, 4-(1-(2-(azetidin-1-yl)pyrimidin-5-yl)-5-(3,5-dimethylisoxazol-4-yl)-1H-pyrrolo[2,3-b]pyridin-3-yl)-3-(trifluoromethoxy)benzoic acid] has an IC50 of 1 to 8 µM.
With `CCOc1cc(C(=O)O)cc(OCC)c1-n1cc(-c2cnn(CS(C)(=O)=O)c2)c2ncc(-c3c(C)noc3C)cc21` [P-0258, 4-(6-(3,5-dimethylisoxazol-4-yl)-3-(1-((methylsulfonyl)methyl)-1H-pyrazol-4-yl)-1H-pyrrolo[3,2-b]pyridin-1-yl)-3,5-diethoxybenzoic acid] the IC50 was 1 to 8 µM.
`Cc1nnn(C)c1-c1cnc2c(c1)c(-c1ccc(C(=O)O)cc1OC(F)(F)F)cn2CC/C=C/C1CC1` [P-0305, (E)-4-(1-(4-cyclopropylbut-3-en-1-yl)-5-(1,4-dimethyl-1H-1,2,3-triazol-5-yl)-1H-pyrrolo[2,3-b]pyridin-3-yl)-3-(trifluoromethoxy)benzoic acid] gave an IC50 of 8 to 1000 µM.
`COc1cc(C(=O)O)cc(C)c1-c1cn(-c2ccccc2)c2ncc(-c3c(C)noc3C)cc12` [P-0255, 4-(5-(3,5-dimethylisoxazol-4-yl)-1-phenyl-1H-pyrrolo[2,3-b]pyridin-3-yl)-3-methoxy-5-methylbenzoic acid] gave an IC50 of 1 to 8 µM.
`Cc1noc(C)c1-c1cnc2c(c1)c(-c1ccc(C(N)=O)cc1)cn2C(c1ccccn1)C1CCCC1` (stereo not shown) [P-0020, 4-(1-(cyclopentyl(pyridin-2-yl)methyl)-5-(3,5-dimethylisoxazol-4-yl)-1H-pyrrolo[2,3-b]pyridin-3-yl)benzamide] gave an IC50 of 1 to 8 µM.
For `COc1ccc(-n2cc(-c3ccc(C(=O)O)cc3OC(F)(F)F)c3cc(-c4c(C)noc4C)cnc32)c(F)c1` [P-0311, 4-(5-(3,5-dimethylisoxazol-4-yl)-1-(2-fluoro-4-methoxyphenyl)-1H-pyrrolo[2,3-b]pyridin-3-yl)-3-(trifluoromethoxy)benzoic acid], the IC50 was 1 to 8 µM.
Work on `CCOc1cc(C(=O)O)cc(OCC)c1-n1cc(-c2cnn(CC(=O)N(C)C)c2)c2ncc(-c3c(C)noc3C)cc21` [P-0267, 4-(3-(1-(2-(dimethylamino)-2-oxoethyl)-1H-pyrazol-4-yl)-6-(3,5-dimethylisoxazol-4-yl)-1H-pyrrolo[3,2-b]pyridin-1-yl)-3,5-diethoxybenzoic acid] yielded an IC50 of 1 to 8 µM.
Compound `CCCn1nc(C(=O)O)c(NCC)c1-c1cn(-c2ccc(F)cc2F)c2ncc(-c3c(C)noc3C)cc12` [P-0304, 5-(1-(2,4-difluorophenyl)-5-(3,5-dimethylisoxazol-4-yl)-1H-pyrrolo[2,3-b]pyridin-3-yl)-4-(ethylamino)-1-propyl-1H-pyrazole-3-carboxylic acid] has an IC50 of 1 to 8 µM.
`Cc1noc(C)c1-c1cnc2c(c1)c(-c1ccc(C(=O)O)cc1OC(C)C)cn2-c1ccccc1` [P-0275, 4-(5-(3,5-dimethylisoxazol-4-yl)-1-phenyl-1H-pyrrolo[2,3-b]pyridin-3-yl)-3-isopropoxybenzoic acid] showed an IC50 of 1 to 8 µM.
With `Cc1noc(C)c1-c1cnc2c(c1)c(-c1ccc(C(=O)O)cc1OC(C)C)cn2-c1cnc(N2CCC2)nc1` [P-0300, 4-(1-(2-(azetidin-1-yl)pyrimidin-5-yl)-5-(3,5-dimethylisoxazol-4-yl)-1H-pyrrolo[2,3-b]pyridin-3-yl)-3-isopropoxybenzoic acid] the IC50 was 8 to 1000 µM.
`Cc1noc(C)c1-c1cnc2c(c1)c(-c1ccc(C(=O)O)cc1OC(F)(F)F)cn2-c1ccccc1Cl` [P-0307, 4-(1-(2-chlorophenyl)-5-(3,5-dimethylisoxazol-4-yl)-1H-pyrrolo[2,3-b]pyridin-3-yl)-3-(trifluoromethoxy)benzoic acid] was tested, and the IC50 was 1 to 8 µM.
`Cc1noc(C)c1-c1cnc2c(c1)c(-c1ccc(C(=O)O)cc1OC(F)(F)F)cn2-c1ccc(F)cc1` [P-0279, 4-(5-(3,5-dimethylisoxazol-4-yl)-1-(4-fluorophenyl)-1H-pyrrolo[2,3-b]pyridin-3-yl)-3-(trifluoromethoxy)benzoic acid] showed an IC50 of 1 to 8 µM.
`Cc1noc(C)c1-c1cnc2c(-c3ccc(C(=O)O)cc3C#N)c(C(F)(F)F)n([C@@H](C)c3ccccn3)c2c1` [P-0256, (S)-3-cyano-4-(6-(3,5-dimethylisoxazol-4-yl)-1-(1-(pyridin-2-yl)ethyl)-2-(trifluoromethyl)-1H-pyrrolo[3,2-b]pyridin-3-yl)benzoic acid] gave an IC50 of 8 to 1000 µM.
In the case of `Cc1cc(-c2c(C(F)(F)F)n([C@@H](C)c3ccccn3)c3cc(-c4c(C)noc4C)cnc23)ccc1C(=O)O` [P-0243, (S)-4-(6-(3,5-dimethylisoxazol-4-yl)-1-(1-(pyridin-2-yl)ethyl)-2-(trifluoromethyl)-1H-pyrrolo[3,2-b]pyridin-3-yl)-2-methylbenzoic acid], the IC50 is reported as 1 to 8 µM.
For `Cc1noc(C)c1-c1cnc2c(c1)c(-c1ccc(C(=O)O)c(F)c1)cn2C(c1ccccn1)C1CCCC1` (stereo not shown) [P-0025, 4-(1-(cyclopentyl(pyridin-2-yl)methyl)-5-(3,5-dimethylisoxazol-4-yl)-1H-pyrrolo[2,3-b]pyridin-3-yl)-2-fluorobenzoic acid], the IC50 was 1 to 8 µM.
`CCOc1cc(O)c(C(=O)O)cc1-c1cn(-c2ccc(F)cc2F)c2ncc(-c3c(C)noc3C)cc12` [P-0249, 5-(1-(2,4-difluorophenyl)-5-(3,5-dimethylisoxazol-4-yl)-1H-pyrrolo[2,3-b]pyridin-3-yl)-4-ethoxy-2-hydroxybenzoic acid] showed an IC50 of 8 to 1000 µM.
`CCOc1cc(C(=O)O)cc(OCC)c1-n1cc(-c2cnn(CC(C)(C)O)c2)c2ncc(-c3c(C)noc3C)cc21` [P-0260, 4-(6-(3,5-dimethylisoxazol-4-yl)-3-(1-(2-hydroxy-2-methylpropyl)-1H-pyrazol-4-yl)-1H-pyrrolo[3,2-b]pyridin-1-yl)-3,5-diethoxybenzoic acid] gave an IC50 of 1 to 8 µM.
